From patent US20160367623A1, “AGONISTS OF GUANYLATE CYCLASE USEFUL FOR THE TREATMENT OF GASTROINTESTINAL DISORDERS, INFLAMMATION, CANCER AND OTHER DISORDERS” (priority 2015, published 2016)
Bridge positions count the residues as written; N and C are the ends. Ends that are not written are not given here.

Test system: patients with chronic idiopathic constipation (CIC)
Assay: Second phase 3 CIC trial: change from baseline in CSBMs/week
Assay type: in vivo, human
Conditions: MRA
[1] = Week 8, 6 mg, ITT Population-Excluding Duplicate Patients
[2] = Week 9, 3 mg, ITT Population-Excluding Duplicate Patients
[3] = Week 9, 6 mg, ITT Population-Excluding Duplicate Patients
[4] = Week 10, 3 mg, ITT Population-Excluding Duplicate Patients
[5] = Week 10, 6 mg, ITT Population-Excluding Duplicate Patients
[6] = Week 11, 3 mg, ITT Population-Excluding Duplicate Patients
[7] = Week 11, 6 mg, ITT Population-Excluding Duplicate Patients
[8] = Week 12, 3 mg, ITT Population-Excluding Duplicate Patients
[9] = Week 12, 6 mg, ITT Population-Excluding Duplicate Patients
[10] = overall average estimate across the 12-week treatment period, 3 mg, ITT Population
[11] = overall average estimate across the 12-week treatment period, 3 mg, ITT Population-Excluding Duplicate Patients
[12] = overall average estimate across the 12-week treatment period, 6 mg, ITT Population
[13] = overall average estimate across the 12-week treatment period, 6 mg, ITT Population-Excluding Duplicate Patients

Substance: Asn^1-Asp^2-Glu^3-Cys^4-Glu^5-Leu^6-Cys^7-Val^8-Asn^9-Val^10-Ala^11-Cys^12-Thr^13-Gly^14-Cys^15-Leu^16 (NDECELCVNVACTGCL; disulfide 4-12, 7-15) [Plecanatide, uroguanylin analogue, guanylate cyclase-C agonist; (C4:C12, C7:C15) bicycle peptide]
- Change from Baseline in CSBMs, Mean (SD) (Week 8, 6 mg, ITT Population): 2.36 (3.243) CSBMs/week
- Change from Baseline in CSBMs, Difference from Placebo [1]: 0.85 CSBMs/week
- Change from Baseline in CSBMs, LS Mean (SE) [1]: 2.35 (0.155) CSBMs/week
- Change from Baseline in CSBMs, Mean (SD) [1]: 2.37 (3.250) CSBMs/week
- Change from Baseline in CSBMs, Mean (SD) (Week 8, Active Combined, ITT Population-Excluding Duplicate Patients): 2.52 (3.510) CSBMs/week
- Change from Baseline in CSBMs, Mean (SD) (Week 8, Active Combined, ITT Population): 2.51 (3.498) CSBMs/week
- Change from Baseline in CSBMs, Difference from Placebo (Week 9, 3 mg, ITT Population): 0.94 CSBMs/week
- Change from Baseline in CSBMs, LS Mean (SE) (Week 9, 3 mg, ITT Population): 2.49 (0.156) CSBMs/week
- Change from Baseline in CSBMs, Mean (SD) (Week 9, 3 mg, ITT Population): 2.59 (3.459) CSBMs/week
- Change from Baseline in CSBMs, Difference from Placebo [2]: 0.95 CSBMs/week
- Change from Baseline in CSBMs, LS Mean (SE) [2]: 2.53 (0.159) CSBMs/week
- Change from Baseline in CSBMs, Mean (SD) [2]: 2.62 (3.479) CSBMs/week
- Change from Baseline in CSBMs, Difference from Placebo (Week 9, 6 mg, ITT Population): 0.81 CSBMs/week
- Change from Baseline in CSBMs, LS Mean (SE) (Week 9, 6 mg, ITT Population): 2.37 (0.154) CSBMs/week
- Change from Baseline in CSBMs, Mean (SD) (Week 9, 6 mg, ITT Population): 2.38 (3.176) CSBMs/week
- Change from Baseline in CSBMs, Difference from Placebo [3]: 0.81 CSBMs/week
- Change from Baseline in CSBMs, LS Mean (SE) [3]: 2.39 (0.156) CSBMs/week
- Change from Baseline in CSBMs, Mean (SD) [3]: 2.39 (3.184) CSBMs/week
- Change from Baseline in CSBMs, Mean (SD) (Week 9, Active Combined, ITT Population-Excluding Duplicate Patients): 2.50 (3.329) CSBMs/week
- Change from Baseline in CSBMs, Mean (SD) (Week 9, Active Combined, ITT Population): 2.48 (3.316) CSBMs/week
- Change from Baseline in CSBMs, Difference from Placebo (Week 10, 3 mg, ITT Population): 0.85 CSBMs/week
- Change from Baseline in CSBMs, LS Mean (SE) (Week 10, 3 mg, ITT Population): 2.49 (0.156) CSBMs/week
- Change from Baseline in CSBMs, Mean (SD) (Week 10, 3 mg, ITT Population): 2.63 (3.617) CSBMs/week
- Change from Baseline in CSBMs, Difference from Placebo [4]: 0.87 CSBMs/week
- Change from Baseline in CSBMs, LS Mean (SE) [4]: 2.52 (0.159) CSBMs/week
- Change from Baseline in CSBMs, Mean (SD) [4]: 2.65 (3.637) CSBMs/week
- Change from Baseline in CSBMs, Difference from Placebo (Week 10, 6 mg, ITT Population): 0.86 CSBMs/week
- Change from Baseline in CSBMs, LS Mean (SE) (Week 10, 6 mg, ITT Population): 2.50 (0.154) CSBMs/week
- Change from Baseline in CSBMs, Mean (SD) (Week 10, 6 mg, ITT Population): 2.51 (3.288) CSBMs/week
- Change from Baseline in CSBMs, Difference from Placebo [5]: 0.87 CSBMs/week
- Change from Baseline in CSBMs, LS Mean (SE) [5]: 2.52 (0.156) CSBMs/week
- Change from Baseline in CSBMs, Mean (SD) [5]: 2.51 (3.288) CSBMs/week
- Change from Baseline in CSBMs, Mean (SD) (Week 10, Active Combined, ITT Population-Excluding Duplicate Patients): 2.58 (3.458) CSBMs/week
- Change from Baseline in CSBMs, Mean (SD) (Week 10, Active Combined, ITT Population): 2.57 (3.449) CSBMs/week
- Change from Baseline in CSBMs, Difference from Placebo (Week 11, 3 mg, ITT Population): 0.96 CSBMs/week
- Change from Baseline in CSBMs, LS Mean (SE) (Week 11, 3 mg, ITT Population): 2.56 (0.157) CSBMs/week
- Change from Baseline in CSBMs, Mean (SD) (Week 11, 3 mg, ITT Population): 2.71 (3.710) CSBMs/week
- Change from Baseline in CSBMs, Difference from Placebo [6]: 0.99 CSBMs/week
- Change from Baseline in CSBMs, LS Mean (SE) [6]: 2.61 (0.159) CSBMs/week
- Change from Baseline in CSBMs, Mean (SD) [6]: 2.75 (3.728) CSBMs/week
- Change from Baseline in CSBMs, Difference from Placebo (Week 11, 6 mg, ITT Population): 0.80 CSBMs/week
- Change from Baseline in CSBMs, LS Mean (SE) (Week 11, 6 mg, ITT Population): 2.40 (0.155) CSBMs/week
- Change from Baseline in CSBMs, Mean (SD) (Week 11, 6 mg, ITT Population): 2.44 (3.276) CSBMs/week
- Change from Baseline in CSBMs, Difference from Placebo [7]: 0.79 CSBMs/week
- Change from Baseline in CSBMs, LS Mean (SE) [7]: 2.41 (0.156) CSBMs/week
- Change from Baseline in CSBMs, Mean (SD) [7]: 2.43 (3.266) CSBMs/week
- Change from Baseline in CSBMs, Mean (SD) (Week 11, Active Combined, ITT Population-Excluding Duplicate Patients): 2.58 (3.498) CSBMs/week
- Change from Baseline in CSBMs, Mean (SD) (Week 11, Active Combined, ITT Population): 2.57 (3.493) CSBMs/week
- Change from Baseline in CSBMs, Difference from Placebo (Week 12, 3 mg, ITT Population): 0.94 CSBMs/week
- Change from Baseline in CSBMs, LS Mean (SE) (Week 12, 3 mg, ITT Population): 2.60 (0.157) CSBMs/week
- Change from Baseline in CSBMs, Mean (SD) (Week 12, 3 mg, ITT Population): 2.76 (3.785) CSBMs/week
- Change from Baseline in CSBMs, Difference from Placebo [8]: 0.97 CSBMs/week
- Change from Baseline in CSBMs, LS Mean (SE) [8]: 2.64 (0.159) CSBMs/week
- Change from Baseline in CSBMs, Mean (SD) [8]: 2.78 (3.803) CSBMs/week
- Change from Baseline in CSBMs, Difference from Placebo (Week 12, 6 mg, ITT Population): 0.86 CSBMs/week
- Change from Baseline in CSBMs, LS Mean (SE) (Week 12, 6 mg, ITT Population): 2.51 (0.155) CSBMs/week
- Change from Baseline in CSBMs, Mean (SD) (Week 12, 6 mg, ITT Population): 2.57 (3.409) CSBMs/week
- Change from Baseline in CSBMs, Difference from Placebo [9]: 0.84 CSBMs/week
- Change from Baseline in CSBMs, LS Mean (SE) [9]: 2.51 (0.157) CSBMs/week
- Change from Baseline in CSBMs, Mean (SD) [9]: 2.56 (3.366) CSBMs/week
- Change from Baseline in CSBMs, Mean (SD) (Week 12, Active Combined, ITT Population-Excluding Duplicate Patients): 2.67 (3.585) CSBMs/week
- Change from Baseline in CSBMs, Mean (SD) (Week 12, Active Combined, ITT Population): 2.66 (3.596) CSBMs/week
- Change from Baseline in CSBMs, Difference from Placebo [10]: 0.90 CSBMs/week
- Change from Baseline in CSBMs, LS Mean (SE) [10]: 2.27 (0.135) CSBMs/week
- Change from Baseline in CSBMs, Difference from Placebo [11]: 0.91 CSBMs/week
- Change from Baseline in CSBMs, LS Mean (SE) [11]: 2.30 (0.137) CSBMs/week
- Change from Baseline in CSBMs, Difference from Placebo [12]: 0.79 CSBMs/week
- Change from Baseline in CSBMs, LS Mean (SE) [12]: 2.16 (0.133) CSBMs/week
- Change from Baseline in CSBMs, Difference from Placebo [13]: 0.79 CSBMs/week
- Change from Baseline in CSBMs, LS Mean (SE) [13]: 2.18 (0.135) CSBMs/week
